The values below come from paper PMC11873045, “Phytochemical profiling and various biological activities of Phlomis tuberosa L” (Scientific Reports, 2025).

For assay [1], the system named is tyrosinase. Nature of the assay: Tyrosinase inhibition (L-DOPA substrate). Type of assay: biochemical. Particulars: at 200 µg/mL.
Method: Tyrosinase enzyme inhibitory activity was measured by the spectrophotometric method as described by Masuda et al., (2005)[29]. L-DOPA was utilized as substrate of the reaction. 150 µL of sodium phosphate buffer (pH 6.8, 100 mM), 10 µL of sample and 20 µL of tyrosinase enzyme solution in buffer were mixed and incubated for 10 min at 37 °C. Following incubation, 20 µL of L-DOPA was added. The absorbances in a 96-well microplate were monitored at 475 nm after 10 min of incubation at 37 °C.
(§1) IC50 values were calculated using a graph plotted between concentration (µg/mL) and percentage inhibition (%).
Assay [2] is described as follows: Metal chelating assay.
Method: (§2) Antioxidant activities of all extracts were assessed by using different methods including β-carotene-linoleic acid assay, DPPH assay, ABTS assay, CUPRAC assay and Metal chelating assay. […] The DPPH assay was performed by using a spectrophotometer according to typical methods documented previously[23]. The ABTS^+assay was carried out as described previously by Re et al., (1999)[24]. The cupric reducing antioxidant capacity (CUPRAC) was evaluated by following the method published Apak et al., (2004)[25]. α-tocopherol and butylated hydroxy anisole (BHA) were used as antioxidant standards to compare the β-carotene-linoleic acid, DPPH, ABTS and CUPRAC assays. The metal chelating assay of extracts for Fe^+2 was performed by using a spectrophotometer as the method reported by Tel et al., (2012)[26]. Ethylenediaminetetraacetic acid (EDTA) was used as a standard.
(§3) IC50 values were calculated using a graph plotted between concentration (µg/mL) and percentage inhibition (%). A graph that plotted absorbance against concentration (µg/mL) was used to determine A0.50 values.
Assay [3] has as its target T1, BChE (Equus caballus, UniProt P81908).
T1 construct: host or cells: equine serum
The assay is described as follows: Butyrylcholinesterase inhibition (DTNB spectrophotometric). Type of assay: biochemical, horse.
Method: The inhibitory activities of acetylcholinesterase and butyrylcholinesterase enzymes of the extracts were determined using spectrophotometer following the protocol described by Deveci et al., (2019) with slight modifications[27]. Acetylthiocholine iodide and butyrylthiocholine chloride were utilized as reaction substrates, while AChE from electric eels and BChE from horse serum were applied. Employing DTNB (5,5′-Dithio-bis(2-nitrobenzoic) acid), the cholinesterase activity was measured. In a nutshell, 130 µL of 100 mM sodium phosphate buffer (pH 8.0), 10 µL of sample solution at different concentrations, and 20 µL of enzyme (AChE or BChE) solution in buffer were mixed and incubated for 15 min at 25 °C, and 20 µL of 0.5 mM DTNB was added. Following that, 0.71 mM, 20 µL of acetylthiocholine iodide or 0.2 mM, 20 µL of butyrylthiocholine chloride were added to initiate the reaction. Utilizing a 96-well microplate reader, the hydrolysis of these substrates was observed spectrophotometrically by the formation of a yellow 5-thio-2-nitrobenzoate anion at a wavelength of 412 nm.
as §3

The subject of assay [4] is α-glucosidase. The assay is described as follows: α-glucosidase inhibition (PNPG). Particulars: at 200 µg/mL. The format is biochemical, Saccharomyces cerevisiae.
Method: 50 µL of phosphate buffer (0.01 M pH 6.9), 10 µL of sample solution, 50 µL of α-glucosidase from Saccharomyces cerevisiae in phosphate buffer (0.01 M pH 6.0) and 25 µL of PNPG (4-N-nitrophenyl-α-d-glucopyranoside) in phosphate buffer (0.01 M pH 6.9) were mixed in a 96-well microplate. Then the solution was incubated for 20 min at 37 °C.
Assay [5] deals with T2, α-amylase (Sus scrofa, UniProt P00690).
T2 construct: host or cells: porcine pancreas
T2 sequence (P00690 16-511): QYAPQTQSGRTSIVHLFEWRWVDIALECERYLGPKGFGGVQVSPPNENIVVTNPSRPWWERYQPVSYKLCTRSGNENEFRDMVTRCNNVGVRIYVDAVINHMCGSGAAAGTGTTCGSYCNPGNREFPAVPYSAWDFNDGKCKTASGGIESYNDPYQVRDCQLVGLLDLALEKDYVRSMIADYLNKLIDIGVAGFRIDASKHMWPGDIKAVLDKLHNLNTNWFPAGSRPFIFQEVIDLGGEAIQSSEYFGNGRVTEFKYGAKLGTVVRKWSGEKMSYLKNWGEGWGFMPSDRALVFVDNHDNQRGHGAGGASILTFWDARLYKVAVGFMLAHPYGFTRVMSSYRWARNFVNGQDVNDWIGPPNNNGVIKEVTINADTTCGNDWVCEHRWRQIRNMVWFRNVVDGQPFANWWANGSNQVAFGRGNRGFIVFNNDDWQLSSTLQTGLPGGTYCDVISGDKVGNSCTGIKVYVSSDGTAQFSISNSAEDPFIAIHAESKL
Nature of the assay: α-amylase inhibition (starch-iodine method). Type of assay: biochemical, porcine.
Method: The α-amylase inhibitory activity was evaluated by using starch-iodine method[30]. The enzyme α-amylase from porcine pancreas was used and enzyme solution was prepared with phosphate buffer (20 mM pH = 6.9 phosphate buffer prepared with 6 mM NaCl). Then, 50 µL of α-amylase and 25 µL of sample solutions were mixed in a 96-well microplate. The mixture was pre-incubated for 10 min at 37 °C. Then, 50 µL of starch solution (0.05%) was added and incubated for 10 min at 37 °C. Following incubation, the reaction was completed by adding HCl (0.1 M, 25 µL) and Lugol (100 µL) solutions, and the absorbance was recorded at 565 nm.
as §1

Assay [6] in a line: β-carotene-linoleic acid assay (inhibition of lipid peroxidation). Particulars: for β-Carotene-linoleic acid assay Inhibition (%): at 200 µg/mL.
Method: as §2, §3
The nature of assay [7]: DPPH free radical scavenging assay. Particulars: for DPPH assay Inhibition (%): at 200 µg/mL. In general terms: DPPH is a stable violet radical that fades when it is reduced.
Method: as §2, §3
A short description of assay [8]: ABTS cation radical scavenging assay. The note with it: for ABTS assay Inhibition (%): at 200 µg/mL.
Method: as §2, §3
Assay [9] in a line: CUPRAC (cupric reducing antioxidant capacity) assay. Particulars: for CUPRAC assay Absorbance: at 200 µg/mL; for CUPRAC assay A0.50: concentration giving absorbance of 0.50.
Method: as §2, §3
Assay [10] addresses urease (Canavalia ensiformis, UniProt P07374). Type of assay: biochemical, jack bean.

Chain of urease (P07374 whole entry, looked up): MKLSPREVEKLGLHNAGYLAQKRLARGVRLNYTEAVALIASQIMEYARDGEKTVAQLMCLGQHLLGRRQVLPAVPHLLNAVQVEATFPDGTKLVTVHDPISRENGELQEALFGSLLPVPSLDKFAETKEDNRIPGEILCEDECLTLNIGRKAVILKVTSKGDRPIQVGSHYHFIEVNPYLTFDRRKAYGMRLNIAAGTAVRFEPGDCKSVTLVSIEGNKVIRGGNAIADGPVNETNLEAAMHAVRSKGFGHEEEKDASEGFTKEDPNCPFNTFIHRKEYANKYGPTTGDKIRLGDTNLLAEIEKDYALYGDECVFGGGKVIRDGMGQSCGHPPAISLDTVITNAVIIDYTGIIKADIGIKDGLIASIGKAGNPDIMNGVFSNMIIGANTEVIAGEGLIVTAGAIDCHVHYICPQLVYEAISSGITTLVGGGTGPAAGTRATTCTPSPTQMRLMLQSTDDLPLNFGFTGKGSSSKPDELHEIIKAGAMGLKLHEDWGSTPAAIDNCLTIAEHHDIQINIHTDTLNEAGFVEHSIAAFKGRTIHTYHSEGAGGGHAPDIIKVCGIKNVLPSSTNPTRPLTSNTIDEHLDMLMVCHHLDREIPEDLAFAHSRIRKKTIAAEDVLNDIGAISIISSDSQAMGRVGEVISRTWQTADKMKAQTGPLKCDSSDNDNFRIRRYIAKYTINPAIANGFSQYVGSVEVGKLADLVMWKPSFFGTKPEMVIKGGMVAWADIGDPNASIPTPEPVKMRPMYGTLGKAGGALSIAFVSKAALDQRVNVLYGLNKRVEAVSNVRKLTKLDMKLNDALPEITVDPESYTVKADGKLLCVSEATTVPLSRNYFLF
T1 sequence (P81908 whole entry): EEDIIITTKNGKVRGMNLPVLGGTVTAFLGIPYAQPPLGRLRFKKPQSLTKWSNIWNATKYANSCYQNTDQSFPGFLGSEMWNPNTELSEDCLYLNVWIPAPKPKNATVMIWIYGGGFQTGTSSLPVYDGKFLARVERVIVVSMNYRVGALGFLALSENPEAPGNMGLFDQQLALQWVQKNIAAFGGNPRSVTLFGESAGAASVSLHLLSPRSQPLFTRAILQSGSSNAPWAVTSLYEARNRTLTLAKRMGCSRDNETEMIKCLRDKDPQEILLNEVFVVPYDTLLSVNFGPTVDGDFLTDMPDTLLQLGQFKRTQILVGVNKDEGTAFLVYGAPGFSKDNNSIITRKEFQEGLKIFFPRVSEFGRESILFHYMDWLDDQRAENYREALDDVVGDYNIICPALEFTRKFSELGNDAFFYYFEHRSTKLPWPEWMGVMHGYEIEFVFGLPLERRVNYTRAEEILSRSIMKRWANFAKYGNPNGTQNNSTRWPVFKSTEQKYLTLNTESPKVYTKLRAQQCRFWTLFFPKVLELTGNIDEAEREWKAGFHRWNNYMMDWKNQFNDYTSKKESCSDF

Turning to `O=c1cc(CO)occ1O` [Kojic acid], the “Tyrosinase inhibitory Inhibition (%)” value in [1] is reported as 83.54 ± 0.56%.
Turning to `O=C(O)CN(CCN(CC(=O)O)CC(=O)O)CC(=O)O` [EDTA, ethylenediaminetetraacetic acid], in assay [2], the “Metal chelating assay IC50” value amounted to 5.50 ± 0.25 µg/mL. Moreover, the “Metal chelating assay Inhibition (%)” value in assay [2] (at 200 µg/mL) is reported as 94.40 ± 0.35%.
By inhibition is commonly meant the drop in the measured response relative to a control, in per cent. High values mean a response far below the control, low ones a response near the control. In turn, `COc1ccc2c3c1O[C@H]1C[C@@H](O)C=C[C@@]31CCN(C)C2` [Galantamine, galantamine] yielded an inhibition at 200 µg/mL in [3] of 79.43 ± 0.6%.
In the case of `C[C@H]1O[C@H](O[C@H]2[C@H](O)[C@@H](O)[C@@H](O[C@H]3[C@H](O)[C@@H](O)C(O)O[C@@H]3CO)O[C@@H]2CO)[C@H](O)[C@@H](O)[C@@H]1N[C@H]1C=C(CO)[C@@H](O)[C@H](O)[C@H]1O` (stereo partly drawn) [Acarbose], in assay [4], the “α-glucosidase Inhibition (%)” value came out at 56.70 ± 0.75%. For the same molecule, at 200 µg/mL the inhibition in assay [5] was 82.1 ± 0.27%.
As to `COc1ccc(O)c(C(C)(C)C)c1` [BHA, butylated hydroxyanisole], in assay [6], the “β-Carotene-linoleic acid assay IC50” value is recorded as 1.50 ± 0.03 µg/mL and the “β-Carotene-linoleic acid assay Inhibition (%)” value worked out at 96.20 ± 0.28%. Further, in assay [7], the “DPPH assay IC50” value turned out to be 19.50 ± 0.30 µg/mL and the “DPPH assay Inhibition (%)” value came to 87.90 ± 0.44%. Moreover, in assay [8], the “ABTS assay IC50” value was found to be 12.70 ± 0.10 µg/mL and the “ABTS assay Inhibition (%)” value is recorded as 88.93 ± 0.21%. For the same molecule, in assay [9], the “CUPRAC assay Absorbance” value worked out at 2.45 ± 0.07 and the “CUPRAC assay A0.50” value turned out to be 25.40 ± 0.42 µg/mL.
For the molecule `Cc1c(C)c2c(c(C)c1O)CC[C@@](C)(CCC[C@H](C)CCC[C@H](C)CCCC(C)C)O2` [α-Tocopherol, α-tocopherol], in assay [6], the “β-Carotene-linoleic acid assay IC50” value is listed as 2.10 ± 0.05 µg/mL and the “β-Carotene-linoleic acid assay Inhibition (%)” value is 95.73 ± 0.44%. Besides, in assay [7], the “DPPH assay IC50” value is given as 38.20 ± 0.50 µg/mL and the “DPPH assay Inhibition (%)” value amounted to 84.25 ± 0.36%. Further, in assay [8], the “ABTS assay IC50” value is on record as 34.75 ± 0.55 µg/mL and the “ABTS assay Inhibition (%)” value stood at 83.63 ± 0.34%. Moreover, in [9], the “CUPRAC assay Absorbance” value is listed as 0.88 ± 0.03 and the “CUPRAC assay A0.50” value was 60.45 ± 0.30 µg/mL.
For the molecule `NC(N)=S` [Thiourea, thiourea], the “Urease inhibitory IC50” value in assay [10] stood at 8.20 ± 0.36 µg/mL. Moreover, the “Urease inhibitory Inhibition (%)” value in assay [10] (at 200 µg/mL) came out at 87.37 ± 0.52%.
